Patent publication EP0596449A2, “Serotonin receptor antagonists for treating myocardial ischemia” (E.R. SQUIBB & SONS, INC., priority 1992, dated 1994)
Marks after values point to notes of the source that are not given here.

System: globally ischemic, isolated rat hearts
Assay: Effect of 5HT, alone or with 5HT2 antagonist, on time to contracture and pre-ischemic function in isolated rat hearts
Settings: for Coronary Flow / HR / LVDP: 30 μM 5HT + 3 μM Ketanserin, pre-ischemic; for effect on the pro-ischemic effect of 5HT (time to contracture): 30 µM 5HT plus antagonist, both given 10 minutes before ischemia, Figure 3
Description: To determine the effect of serotonin receptor agonists and antagonists, male Sprague-Dawley rats (450-550 g) were prepared as described below. The rats were anesthetized using 100 mg/kg sodium pentobarbital (i.p.). They were intubated and then treated with i.v. heparin (1000 U/kg). While being mechanically ventilated, their hearts were perfused in situ via retrograde cannulation of the aorta. […] A water-filled latex balloon attached to a metal cannula was then inserted into the left ventricle and connected to a Statham pressure transducer for measurement of left ventricular pressure. […] Pre-ischemia or pre-drug function, heart rate and coronary flow (extracorporeal electromagnetic flow probe) were then measured. Left ventricular developed pressure (LVDP) was calculated from the difference between left ventricular peak systolic pressure and EDP. Cardiac temperature was maintained throughout the experiment by submerging the hearts in 37 ° C buffer which was allowed to accumulate in a stoppered, heated chamber. In another series of hearts, the effect of 5HT on the severity of ischemia was determined. […] Vehicle (0.1% DMSO) given 10 minutes before ischemia (n = 5). The hearts were subjected to global ischemia as described above and time to contracture determined. Reperfusion function and LDH release were not determined in this group.

In the case of `O=C(c1ccc(F)cc1)C1CCN(CCn2c(=O)[nH]c3ccccc3c2=O)CC1` [Ketanserin, ketanserin], the “Coronary Flow” value (Post-Drug) is reported as 18 ± 1 mL/min/g, the HR (Post-Drug) is reported as 335±17^a beats/min and the LVDP (Post-Drug) is reported as 130±2 mmHg. The “Coronary Flow” value (Pre-Drug) was 18 ± 2 mL/min/g, the HR (Pre-Drug) was 270±16 beats/min and the LVDP (Pre-Drug) was 141±4 mmHg. The “effect on the pro-ischemic effect of 5HT (time to contracture)” value was “abolished the pro-ischemic effect of serotonin” and the “effect on the pro-ischemic effect of 5HT (time to contracture)” value (listed as ketanserin) was “completely abolished this pro-ischemic effect”.
